What was measured:
[1] = Effects of age and gender on PK parameters, 1×800 mg data from study 103 and 2×400 mg data from study 105, fed and fasted; type: in vivo, human; conditions: 1×800 mg (103) + 2×400 mg (105)
Experimental: The report is based primarily on two similarly designed studies in which PK parameters were determined under fed and fasted conditions for the 2×400 mg dose of metaxalone: • Study AN151607-103 (hereafter referred to as the 103 study): a four-period, randomized crossover trial with treatment conditions 2×400 mg with food, 2×400 mg without food, 1×800 mg with food, 1×800 mg without food; and • Study ELN151607-105 (hereafter referred to as the 105 study): a two-period, randomized crossover trial with treatment conditions 2×400 mg with food and 2×400 mg without food.
(§1) These analyses are still based on the combined group of n=103 subjects (59 from study 103, 44 from study 105). However, the fed and fasted PK values from the 1×800 dosage of study 103 are used instead of the data from the 2×400 dosage.
as §1, with “It is possible to somewhat independently assess the consistency of the results from Sections 3.2 and 3.3 by repeating the analyses using the 1×800 fed and fasted results from study 103. These” for “These”
The same regression modeling strategy as was described in Sections 3.2 and 3.3 was also used. […] The parameter estimates, standard errors, and p-values for the gender and age effects are shown below for the fed and fasted conditions in TABLE XIb: […]

[2] = Effects of age and gender on PK parameters, study 101 (1×400 mg with and without food); type: in vivo, human
Experimental: In addition, the robustness of the results are assessed by applying similar analysis approaches to the data from two other studies: • Study AN151607-101 (hereafter referred to as the 101 study): a two-period, randomized crossover trial with treatment conditions 1×400 mg with food and 1×400 mg without food; • Study AN151607-106 (hereafter referred to as the 106 study): a single dose trial with treatment condition 2×400 mg without food.
Study 101 was a two-period randomized crossover trial conducted in 42 healthy volunteers. The mean age was 23.8 years, with a range from 18 to 42 years. The treatment conditions were 1×400 mg with food and 1×400 mg without food. Because the treatments were not the same as in the 103 and 105 studies (1×400 mg in study 101, as opposed to 2×400 mg in studies 103 and 105), and additionally because the blood sample collection schedules were not the same, it is not possible to combine the 101 data with the data from studies 103 and 105. However, it is possible to independently investigate the effects of age on fed and fasted values of the PK parameters in order to determine if the effects are of similar magnitude and direction to those found in the 103 and 105 studies.
First, Pearson and Spearman correlation coefficients between age and each of the three PK parameters were computed. The correlation coefficients and two-sided p-values from the test of the null hypothesis of no association are shown below in TABLE VIa:
Linear regression models using the natural logarithm of each of the three PK parameters as the dependent variable and age as the independent variable were fitted in order to estimate the magnitude of the associations with age.
Study 101 was a two-period randomized crossover trial conducted in 42 healthy volunteers (31 males, 11 females). The mean age was 23.8 years, with a range from 18 to 42 years. The treatment conditions were 1×400 mg with food and 1×400 mg without food. Because the treatments were not the same as in the 103 and 105 studies, and additionally because the blood sample collection schedules were not the same, it is not possible to combine the 101 data with the data from studies 103 and 105. However, it is reasonable to independently investigate the effects of age and gender on the fed and fasted values of the PK parameters in order to determine if the effects are of similar magnitude and direction to those found in the 103 and 105 studies.
The same regression modeling strategy as was described in Sections 3.2 and 3.3 was also applied. The initial regression models with a gender effect and separate age effects for males and females yielded positive estimates of the age effect for males and negative estimates for females. This was consistent across all three PK parameters. However, none of the age effects was statistically significant and, in addition, there was no significant evidence of interaction between age and gender (all p-values exceeded 0.10). […]

With Cc1cc(C)cc(OCC2CNC(=O)O2)c1 (stereo not shown) [metaxalone, 5-[(3,5-dimethylphenoxy)methyl]-2 oxazolidinone] the “Variability of the fasted PK parameters explained by age” value ([1]; fasted) was “more than 25%”, the “Pearson correlation, age vs ln(AUC(inf))” value ([1]; fasted, n=103) was 0.513 and the “Pearson correlation, age vs ln(AUC(last))” value ([1]; fasted, n=103) was 0.522. The “Pearson correlation, age vs ln(Cmax)” value ([1]; fasted, n=103) was 0.600, the “Spearman correlation, age vs ln(AUC(inf))” value ([1]; fasted, n=103) was 0.514 and the “Spearman correlation, age vs ln(AUC(last))” value ([1]; fasted, n=103) was 0.522. For the same compound, the “Spearman correlation, age vs ln(Cmax)” value ([1]; fasted, n=103) was 0.635, the “Pearson correlation, age vs ln(AUC(inf))” value ([1]; fasted, females n=42) was 0.582 and the “Pearson correlation, age vs ln(AUC(last))” value ([1]; fasted, females n=42) was 0.596. For the same compound, the “Pearson correlation, age vs ln(Cmax)” value ([1]; fasted, females n=42) was 0.607, the “Spearman correlation, age vs ln(AUC(inf))” value ([1]; fasted, females n=42) was 0.596 and the “Spearman correlation, age vs ln(AUC(last))” value ([1]; fasted, females n=42) was 0.601. The “Spearman correlation, age vs ln(Cmax)” value ([1]; fasted, females n=42) was 0.638, the “Pearson correlation, age vs ln(AUC(inf))” value ([1]; fasted, males n=61) was 0.441 and the “Pearson correlation, age vs ln(AUC(last))” value ([1]; fasted, males n=61) was 0.447. For the same compound, the “Pearson correlation, age vs ln(Cmax)” value ([1]; fasted, males n=61) was 0.567, the “Spearman correlation, age vs ln(AUC(inf))” value ([1]; fasted, males n=61) was 0.499 and the “Spearman correlation, age vs ln(AUC(last))” value ([1]; fasted, males n=61) was 0.501. For the same compound, the “Spearman correlation, age vs ln(Cmax)” value ([1]; fasted, males n=61) was 0.599, the “Variability of the fed PK parameters explained by age” value ([1]; fed) was ≤ 5% and the “Pearson correlation, age vs ln(AUC(inf))” value ([1]; fed, n=103) was 0.237. For the same compound, the “Pearson correlation, age vs ln(AUC(last))” value ([1]; fed, n=103) was 0.229, the “Pearson correlation, age vs ln(Cmax)” value ([1]; fed, n=103) was 0.040 and the “Spearman correlation, age vs ln(AUC(inf))” value ([1]; fed, n=103) was 0.281. The “Spearman correlation, age vs ln(AUC(last))” value ([1]; fed, n=103) was 0.276, the “Spearman correlation, age vs ln(Cmax)” value ([1]; fed, n=103) was 0.086 and the “Pearson correlation, age vs ln(AUC(inf))” value ([1]; fed, females n=42) was 0.436. For the same compound, the “Pearson correlation, age vs ln(AUC(last))” value ([1]; fed, females n=42) was 0.408, the “Pearson correlation, age vs ln(Cmax)” value ([1]; fed, females n=42) was 0.258 and the “Spearman correlation, age vs ln(AUC(inf))” value ([1]; fed, females n=42) was 0.432. The “Spearman correlation, age vs ln(AUC(last))” value ([1]; fed, females n=42) was 0.410, the “Spearman correlation, age vs ln(Cmax)” value ([1]; fed, females n=42) was 0.202 and the “Pearson correlation, age vs ln(AUC(inf))” value ([1]; fed, males n=61) was 0.023. For the same compound, the “Pearson correlation, age vs ln(AUC(last))” value ([1]; fed, males n=61) was 0.022, the “Pearson correlation, age vs ln(Cmax)” value ([1]; fed, males n=61) was −0.170 and the “Spearman correlation, age vs ln(AUC(inf))” value ([1]; fed, males n=61) was 0.187. For the same compound, the “Spearman correlation, age vs ln(AUC(last))” value ([1]; fed, males n=61) was 0.188, the “Spearman correlation, age vs ln(Cmax)” value ([1]; fed, males n=61) was −0.001 and the “Proportion of variability explained by age, ln(AUC(inf))” value ([2]; fasted) was 7.7%. The “Proportion of variability explained by age, ln(Cmax)” value ([2]; fasted) was 13.4%, the “Pearson correlation, age vs ln(AUC(inf))” value ([2]; fasted, females n=11) was 0.208 and the “Pearson correlation, age vs ln(AUC(last))” value ([2]; fasted, females n=11) was 0.284. For the same compound, the “Pearson correlation, age vs ln(Cmax)” value ([2]; fasted, females n=11) was 0.309, the “Spearman correlation, age vs ln(AUC(inf))” value ([2]; fasted, females n=11) was 0.235 and the “Spearman correlation, age vs ln(AUC(last))” value ([2]; fasted, females n=11) was 0.406. For the same compound, the “Spearman correlation, age vs ln(Cmax)” value ([2]; fasted, females n=11) was 0.525, the “Pearson correlation, age vs ln(AUC(inf))” value ([2]; fasted, males n=31) was 0.287 and the “Pearson correlation, age vs ln(AUC(last))” value ([2]; fasted, males n=31) was 0.279. For the same compound, the “Pearson correlation, age vs ln(Cmax)” value ([2]; fasted, males n=31) was 0.384, the “Spearman correlation, age vs ln(AUC(inf))” value ([2]; fasted, males n=31) was 0.115 and the “Spearman correlation, age vs ln(AUC(last))” value ([2]; fasted, males n=31) was 0.127. The “Spearman correlation, age vs ln(Cmax)” value ([2]; fasted, males n=31) was 0.206, the “Pearson correlation, age vs ln(AUC(inf))” value ([2]; fasted, n=42) was 0.277 and the “Pearson correlation, age vs ln(AUC(last))” value ([2]; fasted, n=42) was 0.289. The “Pearson correlation, age vs ln(Cmax)” value ([2]; fasted, n=42) was 0.366, the “Spearman correlation, age vs ln(AUC(inf))” value ([2]; fasted, n=42) was 0.146 and the “Spearman correlation, age vs ln(AUC(last))” value ([2]; fasted, n=42) was 0.161. For the same compound, the “Spearman correlation, age vs ln(Cmax)” value ([2]; fasted, n=42) was 0.235, the “Proportion of variability explained by age, ln(AUC(inf))” value ([2]; fed) was 3% and the “Proportion of variability explained by age, ln(AUC(last))” value ([2]; fed) was 3%. For the same compound, the “Proportion of variability explained by age, ln(Cmax)” value ([2]; fed) was 1%, the “Pearson correlation, age vs ln(AUC(inf))” value ([2]; fed, females n=11) was −0.165 and the “Pearson correlation, age vs ln(AUC(last))” value ([2]; fed, females n=11) was −0.188. The “Pearson correlation, age vs ln(Cmax)” value ([2]; fed, females n=11) was −0.396, the “Spearman correlation, age vs ln(AUC(inf))” value ([2]; fed, females n=11) was −0.244 and the “Spearman correlation, age vs ln(AUC(last))” value ([2]; fed, females n=11) was −0.295. The “Spearman correlation, age vs ln(Cmax)” value ([2]; fed, females n=11) was −0.645, the “Pearson correlation, age vs ln(AUC(inf))” value ([2]; fed, males n=31) was 0.268 and the “Pearson correlation, age vs ln(AUC(last))” value ([2]; fed, males n=31) was 0.271. The “Pearson correlation, age vs ln(Cmax)” value ([2]; fed, males n=31) was 0.234, the “Spearman correlation, age vs ln(AUC(inf))” value ([2]; fed, males n=31) was 0.088 and the “Spearman correlation, age vs ln(AUC(last))” value ([2]; fed, males n=31) was 0.094. For the same compound, the “Spearman correlation, age vs ln(Cmax)” value ([2]; fed, males n=31) was 0.169, the “Pearson correlation, age vs ln(AUC(inf))” value ([2]; fed, n=42) was 0.186 and the “Pearson correlation, age vs ln(AUC(last))” value ([2]; fed, n=42) was 0.179. For the same compound, the “Pearson correlation, age vs ln(Cmax)” value ([2]; fed, n=42) was 0.102, the “Spearman correlation, age vs ln(AUC(inf))” value ([2]; fed, n=42) was 0.029 and the “Spearman correlation, age vs ln(AUC(last))” value ([2]; fed, n=42) was 0.022. For the same compound, the “Spearman correlation, age vs ln(Cmax)” value ([2]; fed, n=42) was −0.009.

Source: patent US7714006B1, “Methods of modifying the bioavailability of metaxalone” (King Pharmaceuticals Research & Development, Inc., priority 2001, dated 2010)
